Measurements from US20240043427A1 (Gilead Sciences, Inc., priority 2020, published 2024).
Values joined by “and” are separate entries in the source; they are usually repeats but may differ in a detail not shown here. Identical values can stand only once. Like-named read-outs stand apart in the source and are kept apart here.

What was measured:
CD73 [1] = biological target: T1, CD73 (Homo sapiens (Human), UniProt P21589); experiment: MDA-MB-231 Cell Based CD73 Activity Assay; conditions: MDA-MB-231-GFP cells, RPMI medium with 10% human plasma, 200 uM AMP
CD73 [2] = biological target: T1, CD73; experiment: MDA-MB-231 Cell Based CD73 Activity Assay (DMEM); conditions: MDA-MB-231-GFP cells, DMEM medium with 10% human plasma, 200 uM AMP
CD73 [3] = biological target: T1, CD73; experiment: CD73 Biochemical IC50 Assay; conditions: CD73 0.3 nM, AMP 15 uM, 25 mM Tris pH 7.4, 5 mM MgCl2
Method: CD73 Biochemical IC50 Assay
Compound serial dilutions were pre-spotted into Thermo Nunc assay plate. 50 μL CD73 enzyme buffer (CD73 purchased from R&D system=0.6 nM, 25 mM Tris, pH 7.4, 5 mM MgCl2) was added into the assay plate and incubated for 15 mins. […] The samples were run using Rapid fire.

CD73 [4] = biological target: T1, CD73; format: biochemical; conditions: 1 mM NaH2PO4 in enzyme buffer, CD73 0.3 nM, AMP 15 uM

T1 sequence (P21589 27-574): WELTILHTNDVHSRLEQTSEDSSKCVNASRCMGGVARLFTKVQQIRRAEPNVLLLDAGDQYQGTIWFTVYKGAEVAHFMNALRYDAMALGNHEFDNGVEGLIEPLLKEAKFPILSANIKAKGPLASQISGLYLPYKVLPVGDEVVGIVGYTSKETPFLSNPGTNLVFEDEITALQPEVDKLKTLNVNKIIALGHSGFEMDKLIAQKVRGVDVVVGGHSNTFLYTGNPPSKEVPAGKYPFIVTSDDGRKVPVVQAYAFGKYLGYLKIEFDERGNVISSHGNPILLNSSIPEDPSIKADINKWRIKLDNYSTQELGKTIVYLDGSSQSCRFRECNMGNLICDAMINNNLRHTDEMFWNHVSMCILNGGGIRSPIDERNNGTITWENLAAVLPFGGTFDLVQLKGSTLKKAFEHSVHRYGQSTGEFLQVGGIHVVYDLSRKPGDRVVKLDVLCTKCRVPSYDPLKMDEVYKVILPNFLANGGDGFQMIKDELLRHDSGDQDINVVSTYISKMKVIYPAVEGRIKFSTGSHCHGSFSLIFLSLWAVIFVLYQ

EC50 (CD73 [1])	EC50 (CD73 [2]) [µM]	IC50 (CD73 [3])	IC50 (CD73 [4]) [µM]	Structure (SMILES)
0.0174 µM	0.0317	0.0397 µM	0.00987	O=c1[nH]cc(-c2cc(N3C[C@H](F)[C@@H](F)C3)c3nccn3n2)c(=O)[nH]1 (racemic) [Example 73, 5-[8-[(3S,4S)-3,4-difluoropyrrolidin-1-yl]imidazo[1,2-b]pyridazin-6-yl]-1H-pyrimidine-2,4-dione and 5-[8-[(3R,4R)-3,4-difluoropyrrolidin-1-yl]imidazo[1,2-b]pyridazin-6-yl]-1H-pyrimidine-2,4-dione]
0.00608 µM	0.0177	0.0433 µM	0.00134	N#Cc1cc(F)cc([C@H]2C[C@@H]2c2cc(-c3c[nH]c(=O)[nH]c3=O)nn3ccnc23)c1 (racemic) [Example 85, 3-[(1S,2S)-2-[6-(2,4-dioxo-1H-pyrimidin-5-yl)imidazo[1,2-b]pyridazin-8-yl]cyclopropyl]-5-fluoro-benzonitrile and 3-[(1R,2R)-2-[6-(2,4-dioxo-1H-pyrimidin-5-yl)imidazo[1,2-b]pyridazin-8-yl]cyclopropyl]-5-fluoro-benzonitrile]
0.0218 µM	0.0166	0.152 µM	0.00566	O=c1[nH]cc(-c2cc([C@H]3C[C@@H]3c3ccc(F)cc3)c3nc(C4CC4)cn3n2)c(=O)[nH]1 (racemic) [Example 86, 5-[2-cyclopropyl-8-[(1S,2S)-2-(4-fluorophenyl)cyclopropyl]imidazo[1,2-b]pyridazin-6-yl]-1H-pyrimidine-2,4-dione and 5-[2-cyclopropyl-8-[(1R,2R)-2-(4-fluorophenyl)cyclopropyl]imidazo[1,2-b]pyridazin-6-yl]-1H-pyrimidine-2,4-dione]
0.00723 µM	0.0177	0.0164 µM	0.002	O=c1[nH]cc(-c2cc([C@H]3C[C@@H]3c3ccc(Cl)c(F)c3)c3nccn3n2)c(=O)[nH]1 (racemic) [Example 98, 5-(8-((1S,2S)-2-(4-chloro-3-fluorophenyl)cyclopropyl)imidazo[1,2-b]pyridazin-6-yl)pyrimidine-2,4(1H,3H)-dione and 5-(8-((1R,2R)-2-(4-chloro-3-fluorophenyl)cyclopropyl)imidazo[1,2-b]pyridazin-6-yl)pyrimidine-2,4(1H,3H)-dione]
0.0075 µM	0.0287	0.0314 µM	0.00296	O=c1[nH]cc(-c2cc([C@H]3C[C@@H]3c3ccc4c(c3)OC(F)(F)O4)c3nccn3n2)c(=O)[nH]1 (racemic) [Example 110, 5-(8-((1S,2S)-2-(2,2-difluorobenzo[d][1,3]dioxol-5-yl)cyclopropyl)imidazo[1,2-b]pyridazin-6-yl)pyrimidine-2,4(1H,3H)-dione and 5-(8-41R,2R)-2-(2,2-difluorobenzo[d][1,3]dioxol-5-yl)cyclopropyl)imidazo[1,2-b]pyridazin-6-yl)pyrimidine-2,4(1H,3H)-dione]
0.00421 µM	0.0129	0.0133 µM	0.00177	N#Cc1ccc([C@H]2C[C@@H]2c2cc(-c3c[nH]c(=O)[nH]c3=O)nn3ccnc23)cc1F (racemic) [Example 115, 4-((1S,2S)-2-(6-(2,4-dioxo-1,2,3,4-tetrahydropyrimidin-5-yl)imidazo[1,2-b]pyridazin-8-yl)cyclopropyl)-2-fluorobenzonitrile]
0.0143 µM	0.0303	0.0301 µM	0.00483	O=c1[nH]cc(-c2cc(N3CCC(c4ccc(F)cc4)C3)c3nccn3n2)c(=O)[nH]1 (stereo in doubt) [Example 67, 5-[8-[(3R)-3-(4-fluorophenyl)pyrrolidin-1-yl]imidazo[1,2-b]pyridazin-6-yl]-1H-pyrimidine-2,4-dione]
0.0291 µM	0.0588	0.106 µM	0.0194	O=c1[nH]cc(-c2cc(N3CCCC3)c3nccn3n2)c(=O)[nH]1 [Example 9, 5-(8-pyrrolidin-1-ylimidazo[1,2-b]pyridazin-6-yl)-1H-pyrimidine-2,4-dione]
0.0463 µM and 0.0451 µM	0.104	0.0558 µM and 0.0649 µM	0.0355	O=c1[nH]cc(-c2cc(C3CC3)c3nccn3n2)c(=O)[nH]1 [Example 22, 5-(8-cyclopropylimidazo[1,2-b]pyridazin-6-yl)pyrimidine-2,4(1H,3H)-dione]
0.0251 µM	0.0322	0.0272 µM	0.00847	O=c1[nH]cc(-c2cc(N3CC(C(F)(F)F)C3)c3nccn3n2)c(=O)[nH]1 [Example 62, 5-(8-(3-(trifluoromethyl)azetidin-1-yl)imidazo[1,2-b]pyridazin-6-yl)pyrimidine-2,4(1H,3H)-dione]
0.0347 µM	0.0474	0.0705 µM	0.0291	CC1(C)CN(c2cc(-c3c[nH]c(=O)[nH]c3=O)nn3ccnc23)C1 [Example 63, 5-(8-(3,3-dimethylazetidin-1-yl)imidazo[1,2-b]pyridazin-6-yl)pyrimidine-2,4(1H,3H)-dione]
0.24 µM	0.285	0.221 µM	0.134	O=c1[nH]cc(-c2cc(N3CCC(F)(F)CC3)c3nccn3n2)c(=O)[nH]1 [Example 70, 5-[8-(4,4-difluoro-1-piperidyl)imidazo[1,2-b]pyridazin-6-yl]-1H-pyrimidine-2,4-dione]
0.0124 µM	0.0259	0.0265 µM	0.00697	CC1(C)CCN(c2cc(-c3c[nH]c(=O)[nH]c3=O)nn3ccnc23)C1 [Example 72, 5-[8-(3,3-dimethylpyrrolidin-1-yl)imidazo[1,2-b]pyridazin-6-yl]-1H-pyrimidine-2,4-dione]
0.0117 µM	0.0208	0.0252 µM	0.00458	O=c1[nH]cc(-c2cc(N3CCC(F)(F)C3)c3nccn3n2)c(=O)[nH]1 [Example 79, 5-[8-(3,3-difluoropyrrolidin-1-yl)imidazo[1,2-b]pyridazin-6-yl]-1H-pyrimidine-2,4-dione]
0.556 µM	0.685	0.522 µM	> 0.25	O=c1[nH]cc(-c2cc(N3CCCC(F)(F)C3)c3nccn3n2)c(=O)[nH]1 [Example 93, 5-(8-(3,3-difluoropiperidin-1-yl)imidazo[1,2-b]pyridazin-6-yl)pyrimidine-2,4(1H,3H)-dione]
